“Also recorded” adds a separate entry of the source. Like-named read-outs stand apart in the source and are kept apart here.
Tests used:
[1] = tested on: Madin–Darby bovine kidney (MDBK) cells; assay: MTT cell viability assay on MDBK cells; format: cell-based
Procedure: MTT cell viability assays were performed on Madin–Darby bovine kidney (MDBK cells) for the five selected hederagenin derivatives (MC014, MC035, MC042, MC055 and MC062) using final concentrations of 100 μM, 75 μM, 50 μM, 25 μM, 10 μM, 5 μM and 1 μM (in 1% DMSO). Negative (1% v/v Triton X-100, Sigma-Aldrich, UK) and positive (1% v/v DMSO or media only) controls were included. The protocol was followed as previously described. Absolute EC50 values were calculated from the corrected absorbance of replicates by non-linear regression, after log transformation of concentrations and data normalization (where DMSO values represents 0% inhibition and TX-100 values represent 100% inhibition) using GrapPad Prism 8.

[2] = tested on: wild strain adult F. hepatica; assay: Ex vivo motility assay on adult liver flukes (wild strain); format: cell-based, Fasciola hepatica; conditions: 40 µM; for Effect on wild strain adult fluke motility, in words: 72 h; for Average motility of 4 parasites with 95% CI at 72 hour time point: wild strain adult flukes, score 1 good/normal to 6 no movement or dead
Procedure: Due to the high number of active molecules and a shortage of Italian strain adult liver flukes, the eleven hit compounds were screened for 72 h at 40 µM (in 0.4% DMSO) on wild strain adult F. hepatica (n = 4/condition) of unknown provenance (Table S3). The protocol for culturing and scoring (motility) the activity of these compounds was previously described (1—good/normal; 2—moderate; 3—resting (less than 10 s pulses of body and head), 4—apathetic (less than 2 s pulses of body and head), 5—paralysis and 6–no movement or dead worms). Six compounds were deemed active in these assays and were selected for further screening.

[3] = tested on: immature F. hepatica flukes (Italian strain); assay: Ex vivo motility assay on immature liver flukes (Italian strain), single concentration and dose response; format: cell-based, Fasciola hepatica; conditions: 40 µM; for Average motility of 4 parasites with 95% CI at 24 hour time point: score 1 normal to 5 no movement or death; for Effect on immature fluke motility, in words: by 72 h
Procedure: The six selected compounds (at 40 µM in 0.4% DMSO) were evaluated on immature flukes (n = 4/condition) at 24, 48 and 72 h (Table S4). The protocol for culturing and scoring (motility) of these life stages have been previously described. Due to restricted numbers of immature worms, a dose response assay was conducted only for MC042. Here, immature worms (n = 2/concentration tested) were screened against descending concentrations of MC042 (40 µM, 13.3 µM and 4.4 µM); motility scores were recorded at 24, 48 and 72 h (Table S5). The scoring pattern used is identical to that described for NEJs.

[4] = tested on: adult F. hepatica flukes (Italian strain); assay: Ex vivo dose response motility assay on adult liver flukes (Italian strain); format: cell-based, Fasciola hepatica; conditions: for Average motility of 3 parasites treated with 4.4 µM, 24 hours / Average motility of 3 parasites treated with 4.4 µM, 48 hours / Average motility of 3 parasites treated with 4.4 µM, 72 hours / Average motility of 3 parasites treated with 13.3 µM, 24 hours / Average motility of 3 parasites treated with 13.3 µM, 48 hours / Average motility of 3 parasites treated with 13.3 µM, 72 hours / Average motility of 3 parasites treated with 40 µM, 24 hours / Average motility of 3 parasites treated with 40 µM, 48 hours / Average motility of 3 parasites treated with 40 µM, 72 hours: adult flukes Italian strain, score 1 to 6; for EC50: adult flukes, motility; for Effect on adult fluke (Italian strain) movement, in words: dose response, MC042 statement at 40 μM after 72 h
Procedure: The collection, ex vivo culturing and screening of adult liver fluke (Italian strain; n = 3/condition) was previously described. Dose response assays (40 µM, 13.3 µM and 4.4 µM) were conducted for MC014, MC042, MC035, MC055 and MC062 with motility scores recorded at 24, 48 and 72 h (Table S6).

[5] = tested on: F. hepatica newly excysted juveniles (NEJs), Italian strain; assay: Ex vivo screen against newly excysted juveniles (NEJs), phenotype and motility scoring; format: cell-based, Fasciola hepatica; conditions: for Average phenotype of 25 NEJs with 95% CI, 24 hours / Average phenotype of 25 NEJs with 95% CI, 48 hours / Average phenotype of 25 NEJs with 95% CI, 72 hours: ultrastructure score 1 normal to 6 dead or dissolved; for Activity against NEJs (first screen), in words: 72 h co-culture
Procedure: […] The NEJs were excysted from metacercariae and assayed at 10 μM (in 0.1% DMSO) final concentration alongside negative (0.1% DMSO) and positive (10 μM TCBZ, in 0.1% DMSO) controls as previously described. The MC and IVL compound series were screened separately.
The motility (1—good/normal; 2—moderate; 3—low; 4—very little; 5—no movement) and phenotypic (ultrastructural changes) scores were noted according to a previously described scoring matrix (Figure S1 and Table S2).

[6] = 48 h, immature flukes, score 1 to 5
[7] = 72 h, immature flukes, score 1 to 5
[8] = 72 h, read-out: EC50 with 95% CI on Adult Flukes (motility), 72 hour
[9] = 10 µM, 24 h, motility score 1 good/normal to 5 no movement
[10] = 10 µM, 48 h, motility score 1 good/normal to 5 no movement

| Structure (SMILES) | Effect on wild strain adult fluke motility, in words [2] | Average motility of 4 parasites with 95% CI at 72 hour time point [2] | Average motility of 4 parasites with 95% CI at 24 hour time point ([3]; 24 h, immature flukes) | Average motility of 4 parasites with 95% CI at 48 hour time point [3, 6] | Average motility of 4 parasites with 95% CI at 72 hour time point [3, 7] | Effect on immature fluke motility, in words [3] | Average motility of 3 parasites treated with 4.4 µM, 24 hours [4] | Average motility of 3 parasites treated with 4.4 µM, 48 hours [4] | Average motility of 3 parasites treated with 4.4 µM, 72 hours ([4]; 72 h) | Average motility of 3 parasites treated with 13.3 µM, 24 hours [4] | Average motility of 3 parasites treated with 13.3 µM, 48 hours [4] | Average motility of 3 parasites treated with 13.3 µM, 72 hours ([4]; 72 h) | Average motility of 3 parasites treated with 40 µM, 24 hours [4] | Average motility of 3 parasites treated with 40 µM, 48 hours [4] | Average motility of 3 parasites treated with 40 µM, 72 hours ([4]; 72 h) | EC50 [4, 8] [µM] | Effect on adult fluke (Italian strain) movement, in words [4] | Average motility of 25 NEJs with 95% CI, 24 hours [5, 9] | Average phenotype of 25 NEJs with 95% CI, 24 hours ([5]; 10 µM, 24 h) | Average motility of 25 NEJs with 95% CI, 48 hours [5, 10] | also measured |
| --- | --- | --- | --- | --- | --- | --- | --- | --- | --- | --- | --- | --- | --- | --- | --- | --- | --- | --- | --- | --- | --- |
| CC1(C)CC[C@]2(C(=O)O)CC[C@]3(C)C(=CC[C@@H]4[C@@]5(C)CC[C@@H]6OC(C)(C)OC[C@@]6(C)[C@@H]5CC[C@]43C)[C@@H]2C1 [MC014] | no motility after 72 h; also recorded: performed very well | 6.00 (6.0;6.0) | 5.00 (5.0;5.0) | 5.00 (5.0;5.0) | 5.00 (5.0;5.0) | paralyzed the assayed immature flukes | 1.00 (1.0;1.0) | 1.00 (1.0;1.0) | 3.00 (1.8; 4.1) | 1.33 (0.6;1.9) | 1.66 (0.3;2.9) | 3.33 (2.6;3.9) | 3.33 (2.6;3.9) | 4.00 (4.0;4.0) | 5.33 (4.0;6.6) | 9.3 | Decreased movement | 5.00 (5.0;5.0) | 4.12 (3.5;4.6) | 5.00 (5.0;5.0) | CC50 with 95% CI on MDBK cells (cytotoxicity) ([1]; MDBK cells, MTT, 24 h exposure): Undefined ^c; Effect on MDBK cell proliferation, in words ([1]; dose response titration up to 100 μM): modest proliferative effect; Cytotoxicity on MDBK cells, in words ([1]; highest concentration tested 100 μM): not cytotoxic even at the highest concentration tested; EC50 ([4]; 24 h exposure, read-out: EC50 with 95% CI on Adult Flukes (motility), 24 hour): 13.5 µM; Average phenotype of 25 NEJs with 95% CI, 48 hours ([5]; 10 µM, 48 h): 6.00 (6.0;6.0); Average motility of 25 NEJs with 95% CI, 72 hours ([5]; 10 µM, 72 h, motility score 1 good/normal to 5 no movement): 5.00 (5.0;5.0); Average phenotype of 25 NEJs with 95% CI, 72 hours ([5]; 10 µM, 72 h): 6.00 (6.0;6.0); Activity against NEJs (first screen), in words ([5]; 10 µM): maximal alterations to both phenotype/ultrastructure and motility |
| CC1(C)CC[C@]2(NC(=O)N3CCNCC3)CC[C@]3(C)C(=CCC4[C@@]5(C)CCC6OC(C)(C)OC[C@@]6(C)C5CC[C@]43C)C2C1 (stereo partly drawn) [MC035, N-((4aR,6aR,6bS,8aS,14bR)-2,2,4a,6a,6b,11,11,14b-Octamethyl-4a,5,6,6a,6b,7,8,9,10,11,12,12a,14,14a, 14b,15,16,16a-octadecahydro-4H-piceno[3,4-d][1,3]dioxin-8a(4bH)-yl)piper-azine-1-carboxamide] | partial paralysis | 5.75 (5.2; 6.2) | 5.00 (5.0;5.0) | 5.00 (5.0;5.0) | 5.00 (5.0;5.0) | paralyzed the assayed immature flukes | 1.00 (1.0;1.0) | 1.00 (1.0;1.0) | 1.00 (1.0;1.0) | 1.00 (1.0;1.0) | 1.00 (1.0;1.0) | 3.66 (2.3; 4.9) | 2.33 (1.6;2.9) | 4.33 (3.6;4.9) | 5.00 (3.8;6.1) | 14.3 | Decreased movement | 5.00 (5.0;5.0) | 6.00 (6.0;6.0) | 5.00 (5.0;5.0) | CC50 ([1]; MDBK cells, MTT, 24 h exposure, read-out: CC50 with 95% CI on MDBK cells (cytotoxicity)): 79.8 µM; Average phenotype of 25 NEJs with 95% CI, 48 hours ([5]; 10 µM, 48 h): 6.00 (6.0;6.0); Average phenotype of 25 NEJs with 95% CI, 72 hours ([5]; 10 µM, 72 h): 6.00 (6.0;6.0); Activity against NEJs (first screen), in words ([5]; 10 µM): maximal alterations to both phenotype/ultrastructure and motility |
| CSc1nc2cc(Cl)c(Oc3cccc(Cl)c3Cl)cc2[nH]1 [Triclabendazole, reference compound] |  | 6.00 (6.0;6.0) | 5.0 (5.0,5.0) | 5.0 (5.0,5.0) | 5.0 (5.0,5.0) | completely immobile by 72 h | 1.00 (1.0; 1.0) | 1.00 (1.0; 1.0) | 1.00 (1.0; 1.0) | 1.00 (1.0;1.0) | 1.33 (0.6;1.9) | 2.00 (0.8; 3.1) | 2.33 (1.6; 2.9) | 5.66 (5.0; 6.3) | 6.00 (6.0; 6.0) |  |  |  |  |  | Average motility of 2 parasites treated with 40 µM, 24 hours ([3]; 24 h, immature flukes, dose response, score 1 to 5): 5.00 (5.0; 5.0); Average motility of 2 parasites treated with 40 µM, 48 hours ([3]; 48 h, immature flukes, dose response, score 1 to 5): 5.00 (5.0; 5.0); Average motility of 2 parasites treated with 40 µM, 72 hours ([3]; 72 h, immature flukes, dose response, score 1 to 5): 5.00 (5.0; 5.0); Average motility of NEJs with 95% CI, 24 hours (positive control) ([5]; 40µM, 24 h, 50 NEJs, score 1 to 5): 5.00 (5.0;5.0); Average phenotype of NEJs with 95% CI, 24 hours (positive control) ([5]; 40µM, 24 h, 50 NEJs, score 1 to 6): 6.00 (6.0;6.0); Average motility of NEJs with 95% CI, 48 hours (positive control) ([5]; 40µM, 48 h, 50 NEJs, score 1 to 5): 5.00 (5.0;5.0); Average phenotype of NEJs with 95% CI, 48 hours (positive control) ([5]; 40µM, 48 h, 50 NEJs, score 1 to 6): 6.00 (6.0;6.0); Average motility of NEJs with 95% CI, 72 hours (positive control) ([5]; 40µM, 72 h, 50 NEJs, score 1 to 5): 5.00 (5.0;5.0); Average phenotype of NEJs with 95% CI, 72 hours (positive control) ([5]; 40µM, 72 h, 50 NEJs, score 1 to 6): 6.00 (6.0;6.0) |
